Values quoted from earlier work in US8106000B2, “Colonic delivery of adsorbents” (Da Volterra, priority 2005, dated 2012).

Settings: oral doses 1 to […]

- expected residual ciprofloxacin in feces (% of oral doses): ≤ 25%
Compound: O=C(O)c1cn(C2CC2)c2cc(N3CCNCC3)c(F)cc2c1=O [ciprofloxacin]
